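Cells were grown in 96-well plates and exposed to each compound for 48 hours at five concentrations; endpoints were interpolated linearly between bracketing concentrations, or set to the highest concentration if not reached. At the TGI there is no net growth.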
Columns and labels:
Experiment in all cases: NCI anticancer screen, dose series, 48 h
M14 melanoma = tested on: M14 melanoma
NCI-H23 lung = tested on: NCI-H23 lung
HCT-116 colon = tested on: HCT-116 colon
MDA-MB-435 = tested on: MDA-MB-435
MOLT-4 leukemia = tested on: MOLT-4 leukemia
ACHN renal = tested on: ACHN renal
PC-3 prostate = tested on: PC-3 prostate
OVCAR-8 ovarian = tested on: OVCAR-8 ovarian

SMILES | TGI (M14 melanoma) | TGI (NCI-H23 lung) | TGI (HCT-116 colon) | TGI (MDA-MB-435) | TGI (MOLT-4 leukemia) | TGI (ACHN renal) | TGI (PC-3 prostate) | TGI (OVCAR-8 ovarian)
c1ccc(C(NCC2CCO2)(c2ccccc2)c2ccccc2)cc1 (stereo unspecified) | 32.1 µM | 30.9 µM | 56 µM | 46 µM | > 100 µM | 29 µM | 31.6 µM | 26.6 µM
CS(=O)(=O)c1nc(-c2cc3c(c(S(C)(=O)=O)n2)CCCC3)cc2c1CCCCC2 | > 100 µM | > 100 µM | > 100 µM | > 100 µM |  | > 100 µM | > 100 µM | > 100 µM
CC[C@@]1(O)C(=O)OCc2c1cc1n(c2=O)Cc2c-1nc1ccccc1c2/C=N\NC(=O)C1CCCN1 (stereo partly specified) | 5.81 µM | 0.965 µM | 21.2 µM | > 100 µM |  | 1.02 µM | > 100 µM | 10.9 µM
Cc1ccc(NC=O)c(-c2c(N)[nH]c(=S)[nH]c2=O)c1 | > 100 µM | > 100 µM | > 100 µM | > 100 µM | > 100 µM | > 100 µM |  | > 100 µM
COc1ccc(-n2[nH]nc(C(N)=O)c2=O)cc1 | > 100 µM | > 100 µM | > 100 µM | > 100 µM | > 100 µM | > 100 µM | > 100 µM | > 100 µM
CC(C)(C)OC(=O)N(CCCCNC(=O)OCc1ccccc1)CCCNC(=O)OCc1ccccc1 | > 100 µM | > 100 µM | > 100 µM | > 100 µM | 30 µM | 22.6 µM | > 100 µM | > 100 µM
COC(=O)c1ccc(/C=C2\Oc3ccccc3C2=O)cc1 | > 100 µM | > 100 µM | > 100 µM | > 100 µM | > 100 µM | > 100 µM | > 100 µM | > 100 µM
CC(C)(C)OC(=O)NC1CC2(C=C(Br)C(=O)C(Br)=C2)OC1=O (stereo unspecified) | 20.2 µM | 22 µM | 9.21 µM | 22.1 µM | 2.59 µM | 10.8 µM | 27.3 µM | 21.4 µM
Cc1cnc2sn(-c3ccc([N+](=O)[O-])cc3)c(=O)c2c1 | > 100 µM | > 100 µM | > 100 µM | > 100 µM | > 100 µM | > 100 µM | > 100 µM | > 100 µM
O=C1C(Br)=C(c2ccccc2)O/C1=C/C(=O)c1ccc(Br)cc1 | > 100 µM | > 100 µM | > 100 µM | > 100 µM | > 100 µM | > 100 µM | 53.3 µM | 81.1 µM
O=CNNC(=O)Nc1cccc2ccccc12 | > 100 µM | > 100 µM | > 100 µM | > 100 µM | > 100 µM | > 100 µM |  | > 100 µM
OC1(c2ccc(-c3ccccc3)cc2)c2ccccc2C2=NCCN21 (stereo unspecified) |  | 52.6 µM | > 100 µM | > 100 µM | > 100 µM | 43.9 µM | 62.9 µM | 
COC(CN(C(C)=O)C1CCC2(SCCS2)c2[nH]c3ccccc3c21)OC (stereo unspecified) | > 100 µM | > 100 µM | > 100 µM | > 100 µM | > 100 µM | > 100 µM | > 100 µM | > 100 µM
Cc1nc(C)c(N2CCN(S(=O)(=O)N(Cc3ccccc3)Cc3ccccc3)CC2)c(=O)[nH]1 | > 100 µM | 56.5 µM | > 100 µM | > 100 µM | > 100 µM | > 73 µM | > 100 µM | 54.1 µM
CO/N=C(/C)c1cccc(Nc2nc3ccccc3c3[nH]c4ccccc4c23)c1 | 21.1 µM | 23.1 µM | 14 µM | 20.6 µM | 27.2 µM | 12.8 µM | 22.3 µM | 20.9 µM
CCN1CCC(O)(c2ccc(Oc3ccc(F)cc3)cc2)C(C(=O)c2ccc(Oc3ccc(F)cc3)cc2)C1 (stereo unspecified) | 30.9 µM | 28 µM | 27.4 µM | 30.8 µM | 41.3 µM | 26.8 µM | 26.4 µM | 30.7 µM
O=C(O)CCS/C(=C\C(SCCC(=O)O)c1ccc(Cl)cc1)c1ccc(Cl)cc1 (stereo unspecified) | > 100 µM | > 100 µM | 57.5 µM | > 100 µM | > 100 µM | > 100 µM | > 100 µM | > 100 µM
O=C(/C=C/c1ccccc1)CSc1ncn[nH]1 | > 100 µM | > 100 µM | > 100 µM |  | > 100 µM | > 100 µM | > 100 µM | > 100 µM
CC(=N\N)/C(C)=N/N=C(C)/C(C)=N/N | > 100 µM | > 100 µM | > 100 µM | > 100 µM |  | > 100 µM | > 100 µM | > 100 µM
O=C(NCCN1CCOCC1)c1cn2c(ccc3sc4ccccc4c(=O)c32)n1 |  | > 100 µM | 29 µM | > 100 µM | > 100 µM | > 100 µM | > 100 µM | > 100 µM
CC(NC(=O)NC(C)(C)C)NC(=O)C(N)CC(=O)O (stereo unspecified) | > 100 µM | > 100 µM | > 100 µM | > 100 µM | > 100 µM | > 100 µM | > 100 µM | > 100 µM
COc1ccc(-n2c(N)c(C#N)[nH]c2=O)cc1 | > 10 µM | > 10 µM | > 10 µM | > 10 µM | > 10 µM | > 10 µM | > 10 µM | > 10 µM
O=C(/C=C/c1ccc(-c2ccccc2)cc1)NCc1ccc(C(=O)NCc2ccccc2)cc1 | > 100 µM | > 100 µM | > 100 µM | > 100 µM |  | > 100 µM | > 100 µM | > 100 µM
CCCCCCCCCCCCCCCCNC(=O)C(=O)/C=C(\O)c1ccc(C)cc1 | > 10 µM | > 10 µM |  | > 10 µM | > 10 µM | > 10 µM | > 10 µM | > 10 µM
CC1=NC2=Nc3nc(C)cc[n+]3CN2C=C1 | > 100 µM | > 100 µM | > 100 µM | > 100 µM |  | > 100 µM | > 100 µM | > 100 µM
CN(C)c1ccc(C=NCC2CCCN3CCCCC23)cc1 (stereo unspecified) | > 100 µM | > 100 µM | > 100 µM |  |  | > 100 µM | > 100 µM | > 100 µM
NC(N)=NC(N)=Nc1ccc(S(=O)(=O)O)cc1 | > 100 µM | > 100 µM | > 100 µM | > 100 µM |  | > 100 µM | > 100 µM | > 100 µM
